# Earlier results, collected in PMC3010278 (Journal of medicinal chemistry, 2010).
# Test system: QR1
# Details: in vivo
compound,measurement,value
"C[S+]([O-])CCCCN=C=S (stereo not shown) [Compound 54, sulforaphane]",QR1 induction in rat mammary gland,induce QR1
